Molecules are shown by their SMILES. Where only a bound is given, the exact number is not on record here.

The test system of one assay is human T-bet. Put plainly: HEKT-bet-luc assay (normalized HEKT-bet IC50). Type of assay: cell-based. The settings on record: Homo sapiens, HEK293, 24 h, Table 4, engineered HEK cells, compound 24 hours, normalized to reference ER-819544. Here is the method: HEKT-bet-luc assay: This assay measures a T-bet dependent reporter (luciferase) activity in engineered HEK cells that express a human T-bet and a T-box responsive element driving luciferase reporter. HEKT-bet cells were plated at 2×10^4/well in 96-well plate and compound was added into cell culture for 24 hours. Luciferase activity was measured by adding 50 μl of Steady-Glo reagent (Promega) and samples were read in Victor V reader (PerkinElmer). The activity of compound was determined by comparing compound treated samples to non-compound treated vehicle controls. The IC50 values were calculated utilizing a maximum value corresponding to the amount of luciferase in the absence of a test compound and a minimum value corresponding to a test compound value obtained at maximum inhibition.
Determination of Normalized HEKT-bet IC50 values: Compounds were assayed in microtiter plates. Each plate included a reference compound which was ER-819544. The un-normalized IC50 value for a particular compound was divided by the IC50 value determined for the reference compound in the same microtiter plate to provide a relative potency value. The relative potency value was then multiplied by the established potency of the reference compound to provide the normalized HEKT-bet IC50 value. […] The IC50 values provided herein were obtained using this normalization method.
One may read the IC50 as the concentration that inhibits the measured activity by half. The low end stands for higher potency, the high end for lower potency. `CCN1C(=O)N2Cc3cc(OC)cc(OC)c3[C@@H](C)C=C2C12CCN(Cc1ccc3ccccc3n1)CC2` [ER-811323-01]: the IC50 was 42 nM.

`CCN1C(=O)N2Cc3cc(OC)cc(OC)c3[C@@H](C)C=C2C12CCN(Cc1cccc3nsnc13)CC2` [ER-811332-01] returned a 50% inhibitory concentration (IC50) of 67 nM.

For `CCN1C(=O)N2Cc3cc(OC)cc(OC)c3[C@@H](C)C=C2C12CCN(Cc1c(-c3ccc(F)cc3)nc3ncccn13)CC2` [ER-811346-02], half-maximal inhibition (IC50) was put at 200 nM.

With `CCN1C(=O)N2Cc3cc(OC)cc(OC)c3[C@@H](C)C=C2C12CCN(Cc1cccc3c1ccn3C)CC2` [ER-811349-01], half-maximal inhibition (IC50) required 43 nM.

As to `CCN1C(=O)N2Cc3cc(OC)cc(OC)c3[C@@H](C)C=C2C12CCN(Cc1c(C)nc3sccn13)CC2` [ER-811352-02], the IC50 is 13 nM.

`CCN1C(=O)N2Cc3cc(OC)cc(OC)c3[C@@H](C)C=C2C12CCN(Cc1cccn1C(C)C)CC2` [ER-811358-01] came in with an IC50 of 220 nM.

Compound `CCN1C(=O)N2Cc3cc(OC)cc(OC)c3[C@@H](C)C=C2C12CCN(Cc1cccn1C(C)(C)C)CC2` [ER-811359-01] yielded an IC50 of 270 nM.

Take `CCN1C(=O)N2Cc3cc(OC)cc(OC)c3[C@@H](C)C=C2C12CCN(Cc1cc(C)sc1C)CC2` [ER-811365-01]: the IC50 was determined as 84 nM.

With `CCN1C(=O)N2Cc3cc(OC)cc(OC)c3[C@@H](C)C=C2C12CCN(Cc1cc(C)cc(C)c1)CC2` [ER-819762], the IC50 stood at 40 nM.

Turning to `CCN1C(=O)N2Cc3cc(OC)cc(OC)c3[C@H](C)C=C2C12CCN(Cc1cc(C)cc(C)c1)CC2` [ER-819763], half-maximal inhibition (IC50) required 550 nM.

As for `CCN1C(=O)N2Cc3cc(OC)cc(OC)c3[C@@H](C)C=C2C12CCN(Cc1cnc[nH]1)CC2` [ER-819780-01], the IC50 is 200 nM.

In the case of `CCN1C(=O)N2Cc3cc(OC)cc(OC)c3[C@@H](C)C=C2C12CCN(Cc1c[nH]c3ccccc13)CC2` [ER-819783-01], the IC50 stood at 35 nM.

As for `CCN1C(=O)N2Cc3cc(OC)cc(OC)c3[C@@H](C)C=C2C12CCN(Cc1nn(C)c3ccccc13)CC2` [ER-819800-01], the IC50 was found to be 23 nM.

In turn, `CCN1C(=O)N2Cc3cc(OC)cc(OC)c3[C@@H](C)C=C2C12CCN(Cc1cn(C)c3ccccc13)CC2` [ER-819804-01] displayed an IC50 of 40 nM.

The compound `CCN1C(=O)N2Cc3cc(OC)cc(OC)c3[C@@H](C)C=C2C12CCN(Cc1cn(C(C)=O)c3ccccc13)CC2` [ER-819808-01] came in with an IC50 of 140 nM.

In turn, `CCN1C(=O)N2Cc3cc(OC)cc(OC)c3[C@@H](C)C=C2C12CCN(Cc1cnoc1C)CC2` [ER-819810-01] yielded an IC50 of 12 nM.

The compound `CCN1C(=O)N2Cc3cc(OC)cc(OC)c3[C@@H](C)C=C2C12CCN(Cc1ccc(/C=C/c3ccccc3)cc1)CC2` [ER-819814-01] displayed an IC50 of 300 nM.

Turning to `CCN1C(=O)N2Cc3cc(OC)cc(OC)c3[C@@H](C)C=C2C12CCN(Cc1ccc3nn[nH]c3c1)CC2` [ER-819820-01], the half-inhibitory concentration (IC50) stood at 90 nM.

The compound `CCN1C(=O)N2Cc3cc(OC)cc(OC)c3[C@@H](C)C=C2C12CCN(Cc1c[nH]nc1C)CC2` [ER-819826-01] registered a half-maximal inhibitory concentration (IC50) of 67 nM.

Regarding `CCN1C(=O)N2Cc3cc(OC)cc(OC)c3[C@@H](C)C=C2C12CCN(Cc1cccnc1C)CC2` [ER-819832-01], the IC50 came to 57 nM.

On to `CCN1C(=O)N2Cc3cc(OC)cc(OC)c3[C@@H](C)C=C2C12CCN(Cc1cccnc1OC)CC2` [ER-819833-01], for which inhibition was half-maximal at 47 nM (IC50).

In turn, `CCN1C(=O)N2Cc3cc(OC)cc(OC)c3[C@@H](C)C=C2C12CCN(Cc1cnc3ccccc3c1)CC2` [ER-819837-01] came in with an IC50 of 56 nM.

In turn, `CCN1C(=O)N2Cc3cc(OC)cc(OC)c3[C@@H](C)C=C2C12CCN(Cc1sncc1C)CC2` [ER-819842-01] displayed an IC50 of 81 nM.

For `CCN1C(=O)N2Cc3cc(OC)cc(OC)c3[C@@H](C)C=C2C12CCN(Cc1ccc3cc[nH]c3c1)CC2` [ER-819844-01], the 50% inhibitory concentration (IC50) is 67 nM.

`CCN1C(=O)N2Cc3cc(OC)cc(OC)c3[C@@H](C)C=C2C12CCN(Cc1ccc3nn(C)nc3c1)CC2` [ER-819847-01]: the 50% inhibitory concentration (IC50) turned out to be 35 nM.

`CCN1C(=O)N2Cc3cc(OC)cc(OC)c3[C@@H](C)C=C2C12CCN(Cc1cccn1-c1ccccc1C(F)(F)F)CC2` [ER-819849-01] returned an IC50 of 220 nM.

On to `CCN1C(=O)N2Cc3cc(O)cc(O)c3[C@@H](C)C=C2C12CCN(Cc1cc(C)cc(C)c1)CC2` [ER-819888-00], for which half-maximal inhibition (IC50) required 300 nM.

Compound `CCN1C(=O)N2Cc3cc(OC)cc(OC)c3[C@@H](C)C=C2C12CCN(Cc1cccn1C)CC2` [ER-819924] gave an IC50 of 50 nM.

`CCN1C(=O)N2Cc3cc(OC)cc(OC)c3[C@H](C)C=C2C12CCN(Cc1cccn1C)CC2` [ER-819925]: the IC50 was 320 nM.

`CCN1C(=O)N2Cc3cc(OC)cc(OC)c3[C@@H](C)C=C2C12CCN(Cc1nc3ccccc3n1C)CC2` [ER-819926] gave an IC50 of 40 nM.

Compound `CCN1C(=O)N2Cc3cc(OC)cc(OC)c3[C@H](C)C=C2C12CCN(Cc1nc3ccccc3n1C)CC2` [ER-819927] yielded an IC50 of 210 nM.

The compound `CCN1C(=O)N2Cc3cc(OC)cc(OC)c3[C@@H](C)C=C2C12CCN(Cc1cc(C)c(F)c(C)c1)CC2` [ER-819931] registered a 50% inhibitory concentration (IC50) of 70 nM.

For `CCN1C(=O)N2Cc3cc(OC)cc(OC)c3[C@@H](C)C=C2C12CCN(Cc1ccc(F)c(OC(F)(F)F)c1)CC2` [ER-819933], inhibition was half-maximal at 1150 nM (IC50).

`CCN1C(=O)N2Cc3cc(OC)cc(OC)c3[C@@H](C)C=C2C12CCN(Cc1c(F)ccc(C)c1F)CC2` [ER-819934]: the IC50 was 100 nM.

`CCN1C(=O)N2Cc3cc(OC)cc(OC)c3[C@@H](C)C=C2C12CCN(Cc1cc(C)ccc1F)CC2` [ER-819935] showed an IC50 of 130 nM.

The compound `CCN1C(=O)N2Cc3cc(OC)cc(OC)c3[C@@H](C)C=C2C12CCN(Cc1ccc(F)c(OC)c1)CC2` [ER-819936] yielded a 50% inhibitory concentration (IC50) of 120 nM.

Regarding `CCN1C(=O)N2Cc3cc(OC)cc(OC)c3[C@H](C)C=C2C12CCN(Cc1cc(C)c(F)c(C)c1)CC2` [ER-819943], the IC50 is > 10000 nM.

Turning to `CCN1C(=O)N2Cc3cc(OC)cc(OC)c3[C@H](C)C=C2C12CCN(Cc1ccc(F)c(OC(F)(F)F)c1)CC2` [ER-819945], the IC50 was > 10000 nM.

`CCN1C(=O)N2Cc3cc(OC)cc(OC)c3[C@H](C)C=C2C12CCN(Cc1c(F)ccc(C)c1F)CC2` [ER-819946] had an IC50 of 2970 nM.

Take `CCN1C(=O)N2Cc3cc(OC)cc(OC)c3[C@H](C)C=C2C12CCN(Cc1cc(C)ccc1F)CC2` [ER-819947]: it took 2600 nM to reach half-maximal inhibition (IC50).

On to `CCN1C(=O)N2Cc3cc(OC)cc(OC)c3[C@H](C)C=C2C12CCN(Cc1ccc(F)c(OC)c1)CC2` [ER-819948], for which the IC50 is > 10000 nM.

As to `CCN1C(=O)N2Cc3cc(OC)cc(OC)c3[C@@H](C)C=C2C12CCN(Cc1cccc3nccnc13)CC2` [ER-819953-01], the IC50 was determined as 26 nM.

For `CCN1C(=O)N2Cc3cc(OC)cc(OC)c3[C@@H](C)C=C2C12CCN(Cc1cccc3ncccc13)CC2` [ER-819954-01], the IC50 stood at 47 nM.

Take `CCN1C(=O)N2Cc3cc(OC)cc(OC)c3[C@@H](C)C=C2C12CCN(Cc1cccc3cccnc13)CC2` [ER-819955-01]: the IC50 was 20 nM.

Compound `CCN1C(=O)N2Cc3cc(OC)cc(OC)c3[C@@H](C)C=C2C12CCN(Cc1ccnn1C)CC2` [ER-819958-01] had an IC50 of 79 nM.

Staying with this assay, now noted: Table 4, engineered HEK cells, compound 24 hours, normalized to reference ER-819544.
`CCN1C(=O)N2Cc3cc(OC)cc(OC)c3[C@@H](C)C=C2C12CCN(Cc1nccn1C)CC2` [ER-819957-01] yielded an IC50 of 55 nM.

For the origin of these results see patent US20110065916A1, “METHOD OF MAKING IMIDAZOAZEPINONE COMPOUNDS” (priority 2007, published 2011).
